In patent publication US12667126B2, “Malonyl steviol glycosides and their comestible use” (Firmenich SA, priority 2020, dated 2026):

How the values were obtained:
[1] = Sensory testing as sweet modifier in SG95 base; conditions: 30 ppm, seven experts, scale -5 to 5 vs reference; for sweet effect as sweet modifier: SG95 (PureCircle) base; for licorice effect as sweet modifier / sweet lingering effect as sweet modifier: SG95 base
Protocol: (§1) Compound 101 was evaluated as a sweet modifier in SG95 (PureCircle) base at 30 ppm. Seven experts were asked to compare the intensity difference between reference (SG95 base) and Compound 101 was added to the sample. The taste properties (such as sweet, licorice, sweet lingering) were evaluated on a scale of −5 to 5 (−5 denoted strong masking effect and 5 denoted strong enhancing effect, 0 being the intensity of reference).
as §1, with “105” for “101”, “SG95” for “SG95 (PureCircle)”, “added” for “added to the”
as §1, with “104” for “101”, “SG95” for “SG95 (PureCircle)”, “104 adding” for “101 was added to the”

[2] = Sensory testing: sweet capacity in water solution versus sucrose; conditions: dosages 62.5 ppm and 250 ppm, ten experts, dosage for equal sweet intensity from sucrose
Protocol: Malonyl glycosides 101, 102, 104 and 105 were evaluated in water solution at two selected dosages (62.5 ppm and 250 ppm) to identify their sweet capacity. Ten experts were asked to evaluate sweet, licorice, and sweet lingering intensities on a linear scale. Then, the dosage for equal sweet intensity from sucrose was identified. Sweet capacity for each compound was calculated based on dosage difference between tested compound and sucrose.

C=C1C[C@@]23CC[C@H]4[C@@](C)(CCC[C@@]4(C)C(=O)O[C@@H]4O[C@H](COC(=O)CC(=O)O)[C@@H](O)[C@H](O)[C@H]4O)[C@@H]2CCC1(O[C@@H]1O[C@H](CO)[C@@H](O)[C@H](O[C@@H]2O[C@H](CO)[C@@H](O)[C@H](O)[C@H]2O)[C@H]1O[C@@H]1O[C@H](CO)[C@@H](O)[C@H](O)[C@H]1O)C3 [Compound 101, 6′-O-malonyl Rebaudioside A]
sweet effect as sweet modifier [1]: sweet enhancement effect | licorice effect as sweet modifier [1]: better performance in licorice and sweet lingering masking than Rebaudioside A | sweet lingering effect as sweet modifier [1]: better performance in licorice and sweet lingering masking than Rebaudioside A | sweet capacity (times sweeter than sucrose) [2]: about 150 times sweeter than sucrose

C=C1C[C@@]2(C)CC[C@H]3[C@@](C)(CCC[C@@]3(C)C(=O)O[C@@H]3O[C@H](COC(=O)CC(=O)O)[C@@H](O)[C@H](O)[C@H]3O)[C@@H]2CCC1(C)O[C@@H]1O[C@H](CO)[C@@H](O)[C@H](O)[C@H]1O[C@@H]1O[C@H](CO)[C@@H](O)[C@H](O)[C@H]1O (some centres unmarked) [Compound 102, 6′-O-malonyl stevioside]
sweet capacity (times sweeter than sucrose) [2]: about 150 times sweeter than sucrose

C=C1C[C@@]23CC[C@H]4[C@@](C)(CCC[C@@]4(C)C(=O)O[C@@H]4O[C@H](COC(=O)CC(=O)O)[C@@H](O)[C@H](O)[C@H]4O)[C@@H]2CCC1(O[C@@H]1O[C@H](CO)[C@@H](O)[C@H](O)[C@H]1O)C3 [Compound 104, 6′-O-malonyl rubusoside]
sweet effect as sweet modifier [1]: sweet enhancement effect | licorice effect as sweet modifier [1]: performed well on tests for licorice and lingering masking effect | sweet lingering effect as sweet modifier [1]: performed well on tests for licorice and lingering masking effect | sweet capacity (times sweeter than sucrose) [2]: about 120 times sweeter than sucrose

C=C1C[C@@]23CC[C@H]4[C@@](C)(CCC[C@@]4(C)C(=O)O[C@@H]4O[C@H](CO)[C@@H](O)[C@H](O)[C@H]4O)[C@@H]2CCC1(O[C@@H]1O[C@H](CO)[C@@H](O)[C@H](O)[C@H]1O[C@@H]1O[C@H](COC(=O)CC(=O)O)[C@@H](O)[C@H](O)[C@H]1O)C3 [Compound 105, 6″′-O-malonyl stevioside]
sweet effect as sweet modifier [1]: sweet enhancement effect | sweet capacity (times sweeter than sucrose) [2]: about 100 times sweeter than sucrose
